Source: patent US11242337B2, “Compounds useful for treating gastrointestinal tract disorders” (Ardelyx, Inc., priority 2017, dated 2022)

Columns and labels:
[1] = target: T1, NHE3 (Homo sapiens, UniProt P48764); assay: Cell-based assay of NHE-3 activity (pre-incubation inhibition), human; conditions: human Preincubation; for pIC50: 0-30 μM test compound
T1 construct: expressed in transfected cells
T1 sequence (P48764 26-834): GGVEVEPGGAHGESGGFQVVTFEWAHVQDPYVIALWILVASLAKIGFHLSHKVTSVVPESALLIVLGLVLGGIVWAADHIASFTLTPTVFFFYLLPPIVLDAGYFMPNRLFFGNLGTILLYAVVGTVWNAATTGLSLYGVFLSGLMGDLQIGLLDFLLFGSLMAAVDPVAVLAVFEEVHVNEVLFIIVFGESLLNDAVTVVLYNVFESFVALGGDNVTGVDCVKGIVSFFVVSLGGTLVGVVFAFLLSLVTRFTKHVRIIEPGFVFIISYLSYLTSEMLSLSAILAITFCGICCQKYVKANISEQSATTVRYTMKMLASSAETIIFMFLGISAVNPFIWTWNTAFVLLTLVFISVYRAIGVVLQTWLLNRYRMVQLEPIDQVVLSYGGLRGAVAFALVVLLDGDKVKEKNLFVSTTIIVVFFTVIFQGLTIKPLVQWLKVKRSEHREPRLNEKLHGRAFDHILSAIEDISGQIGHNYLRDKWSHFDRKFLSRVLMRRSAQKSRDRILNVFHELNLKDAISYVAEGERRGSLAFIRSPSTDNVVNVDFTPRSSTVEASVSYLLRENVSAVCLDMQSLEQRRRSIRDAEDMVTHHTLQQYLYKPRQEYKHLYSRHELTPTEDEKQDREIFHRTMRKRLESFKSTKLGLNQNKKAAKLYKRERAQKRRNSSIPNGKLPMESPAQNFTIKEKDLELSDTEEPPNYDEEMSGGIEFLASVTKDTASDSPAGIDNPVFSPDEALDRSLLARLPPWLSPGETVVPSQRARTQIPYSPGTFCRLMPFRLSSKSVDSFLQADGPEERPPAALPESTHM
T1 sequence (Q99653 2-195 partner limits assumed): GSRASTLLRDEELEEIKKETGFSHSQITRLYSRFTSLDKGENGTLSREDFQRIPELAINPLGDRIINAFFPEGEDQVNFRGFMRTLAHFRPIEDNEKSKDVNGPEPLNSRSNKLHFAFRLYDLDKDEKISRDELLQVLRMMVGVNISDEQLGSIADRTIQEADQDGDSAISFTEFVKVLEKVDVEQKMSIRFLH
How it was run: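 Activity read as initial rate of BCECF fluorescence ratio change per minute (ex 439/505, em 538 nm) following NH4Cl prepulse acid loading. Compound (0–30 μM) present during 10 min Na+-free acidification at room temperature; cells were PS120 fibroblasts stably co-expressing human NHE3 and NHERF2.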

[2] = tested on: human duodenum monolayer culture; assay: Sustained inhibition of apical acid secretion in human organoid monolayer cell cultures (duodenum); format: cell-based; conditions: for inhibition at 1 µM: Homo sapiens
Method: Basal media (BM) consisted of advanced DMEM/F12 containing 10 mM HEPES Invitrogen, 15630-080), 1:100 Glutamax (Invitrogen, 35050-061), and 1:100 penicillin/streptomycin (Invitrogen, 15140-122). Supplemented basal media (SBM) contained 1:100 N2 (Invitrogen, 17502-048), 1:50 B27 (Invitrogen, 12587-010), 1 mM N-acetylcysteine (Sigma, A9165), and 10 nM [Leu15]-gastrin I (Sigma, G9145). Growth factors used included 50 ng per mL mouse EGF (Peprotech, 315-09), 100 ng per mL mouse noggin (Peprotech, 250-38), 500 ng per mL human R-spondin 1 (R&D, 4645-RS), 100 ng per mL mouse Wnt-3a (R&D, 1324-WN), 20 μM. Y-27632 (Tocris, 1254), 10 mM nicotinamide (Sigma, N0636), 500 nM A83-01 (Tocris, 2939), 10 μM SB202190 (Tocris, 1264). Transwells were 0.4 μm pore polyester membrane 24-well Transwell inserts (Corning). Cultures were incubated at 37° C. in 5% CO2.
Each human ileum monolayer culture well was washed twice with fresh SBM on the apical side on day 6 before compound dosing. All compound stocks were 10 mM dissolved in DMSO. Each compound stock was individually mixed with fresh SBM to reach final compound concentration 1 μM and dosed only on the apical side of the monolayer (total volume 200 μl). DMSO at the equivalent concentration was used as the vehicle control. Duplicate wells were dosed for each compound. On day 8, apical media pH was measured by pH electrode, to determine the ability of example compounds to produce sustained inhibition of NHE3 activity in a human monolayer culture system by preventing proton secretion into the apical compartment.
Human duodenum organoids were cultured in WENRNAS (Wnt, EGF, noggin, R-spondin1, Nicotinamide, A83-01, SB202190) and typically grown for 7-12 days before being used to plate monolayer cultures. On day 0, organoid cultures embedded in Matrigel were treated with TrypLE Express to break organoids into small pieces and/or single cells. The cells were resuspended to 0.5×10^6 cells/mL in SBM containing WENRAY (Wnt, EGF, noggin, R-spondin1, A83-01, Y-27632). Following this step, 200 μL of cell suspension was plated into the apical side of a 24-well Transwell (100,000 cells/well) and 600 μL of SBM with WENRAY was added to the basolateral side. Duodenum cells were differentiated with ENA (EGF, noggin, A83-01) on day 3. The color of apical compartment turns from pink or orange to yellow due to the increase in NHE3 expression after differentiation.

Row | Compound | % inhibition [1] | pIC50 [1] | inhibition at 1 µM [2] [%] | % inhibition (duodenum) ([2]; 1 μM apical, inhibition of apical acid secretion vs DMSO)
1 | Cc1cc(S(=O)(=O)NCCOCCOCCNC(=O)NCCCCNC(=O)NCCOCCOCCNS(=O)(=O)c2ccc(O[C@H]3c4cc(Cl)cc(Cl)c4C[C@@H]3N3CCNCC3)c(C)c2)ccc1O[C@H]1c2cc(Cl)cc(Cl)c2C[C@@H]1N1CCNCC1 [Example 32, 3-[2-(2-[2-[(4-[[(1S,2S)-4,6-Dichloro-2-(piperazin-1-yl)-2,3-dihydro-1H-inden-1-yl]oxy]-3-methylbenzene)sulfonamido]ethoxy]ethoxy)ethyl]-1-[4-([[2-(2-[2-[(4-[[(1S,2S)-4,6-dichloro-2-(piperazin-1-yl)-2,3-dihydro-1H-inden-1-yl]oxy]-3-methylbenzene)sulfonamido]ethoxy]ethoxy)ethyl]carbamoyl]amino)butyl]urea; bis(trifluoroacetic acid)] | C (>70%) | C (NHE3 pIC50 > 7) | > 70 | –
2 | O=C(NCCCCNC(=O)NCCOCCN1CC[C@H](NS(=O)(=O)c2ccc(O[C@H]3c4cc(Cl)cc(Cl)c4C[C@@H]3N3CCNCC3)c(F)c2)C1)NCCOCCN1CC[C@H](NS(=O)(=O)c2ccc(O[C@H]3c4cc(Cl)cc(Cl)c4C[C@@H]3N3CCNCC3)c(F)c2)C1 [Example 106, 4-([(1S,2S)-4,6-Dichloro-2-(piperazin-1-yl)-2,3-dihydro-1H-inden-1-yl]oxy)-N—[(S)-1-(20-[(S)-3-([4-([(1S,2S)-4,6-dichloro-2-(piperazin-1-yl)-2,3-dihydro-1H-inden-1-yl]oxy)-3-fluorophenyl]sulfonamido)pyrrolidin-1-yl]-7,14-dioxo-3,18-dioxa-6,8,13,15-tetraazaicosyl)pyrrolidin-3-yl]-3-fluorobenzenesulfonamide; tetra(trifluoroacetate)] | C (>70%) | – | > 70 | –
3 | CN(C)[C@H]1CCCN([C@H]2Cc3c(C#N)cc(Cl)cc3[C@@H]2Oc2ccc(S(=O)(=O)NCCOCCOCCNC(=O)NCCCCNC(=O)NCCOCCOCCNS(=O)(=O)c3ccc(O[C@H]4c5cc(Cl)cc(C#N)c5C[C@@H]4N4CCC[C@H](N(C)C)C4)cc3)cc2)C1 [Example 122, 4-([(1S,2S)-6-Chloro-4-cyano-2-[(S)-3-(dimethylamino)piperidin-1-yl]-2,3-dihydro-1H-inden-1-yl]oxy)-N-[26-([4-([(1S,2S)-6-chloro-4-cyano-2-[(S)-3-(dimethylamino)piperidin-1-yl]-2,3-dihydro-1H-inden-1-yl]oxy)phenyl]sulfonamido)-10,17-dioxo-3,6,21,24-tetraoxa-9,11,16,18-tetraazahexacosyl]benzenesulfonamide] | C (>70%) | C (NHE3 pIC50 > 7) | > 70 | –
4 | Cc1cc(Cl)cc2c1C[C@H](N1CCC[C@@H](N(C)C)C1)[C@H]2Oc1ccc(S(=O)(=O)NCCOCCOCCNC(=O)NCCCCNC(=O)NCCOCCOCCNS(=O)(=O)c2ccc(O[C@H]3c4cc(Cl)cc(C)c4C[C@@H]3N3CCC[C@@H](N(C)C)C3)cc2)cc1 [Example 28, 3-[2-(2-[2-[(4-[[(1S,2S)-6-Chloro-2-[(3R)-3-(dimethylamino)piperidin-1-yl]-4-methyl-2,3-dihydro-1H-inden-1-yl]oxy]benzene)sulfonamido]ethoxy]ethoxy)ethyl]-1-[4-([[2-(2-[2-[(4-[[(1S,2S)-6-chloro-2-[(3R)-3-(dimethylamino)piperidin-1-yl]-4-methyl-2,3-dihydro-1H-inden-1-yl]oxy]benzene)sulfonamido]ethoxy]ethoxy)ethyl]carbamoyl]amino)butyl]urea; bis(trifluoroacetic acid)] | C (>70%) | C (NHE3 pIC50 > 7) | 50 to 70 | –
5 | 3-[2-(2-[2-[(4-[[(1S,2S)-4,6-Dichloro-2-[(3R)-3-[methyl(propan-2-yl)amino]piperidin-1-yl]-2,3-dihydro-1H-inden-1-yl]oxy]benzene) sulfonamido]ethoxy]ethoxy)ethyl]-1-[4-([[2-(2-[2-[(4-[[(1S,2S)-4,6-dichloro-2-[(3R)-3-[methyl(propan-2-yl)amino]piperidin-1-yl]-2,3-dihydro-1H-inden-1-yl]oxy]benzene)sulfonamido]ethoxy]ethoxy)ethyl]carbamoyl]amino)butyl]urea; bis(trifluoroacetic acid) [Example 78] | C (>70%) | – | – | C (>70%)

Second part, led by results:

Row | % inhibition [1] | pIC50 [1] | Compound | inhibition at 1 µM [2] [%] | % inhibition (duodenum) ([2]; 1 μM apical, inhibition of apical acid secretion vs DMSO)
6 | C (>70%) | – | Cc1cc(Cl)cc2c1C[C@H](N1CCNCC1)[C@H]2Oc1ccc(S(=O)(=O)NCCOCCOCCNC(=O)NCCCCNC(=O)NCCOCCOCCNS(=O)(=O)c2ccc(O[C@H]3c4cc(Cl)cc(C)c4C[C@@H]3N3CCNCC3)cc2)cc1 [Example 34, 3-[2-(2-[2-[(4-[[(1S,2S)-6-Chloro-4-methyl-2-(piperazin-1-yl)-2,3-dihydro-1H-inden-1-yl]oxy]benzene)sulfonamido]ethoxy]ethoxy)ethyl]-1-[4-([[2-(2-[2-[(4-[[(1S,2S)-6-chloro-4-methyl-2-(piperazin-1-yl)-2,3-dihydro-1H-inden-1-yl]oxy]benzene)sulfonamido]ethoxy]ethyl)ethyl]carbamoyl]amino)butyl]urea; bis(trifluoroacetic acid)] | 50 to 70 | –
7 | C (>70%) | C (NHE3 pIC50 > 7) | Cc1cc(S(=O)(=O)NCCOCCOCCNC(=O)NCCCCNC(=O)NCCOCCOCCNS(=O)(=O)c2ccc(O[C@H]3c4cc(Cl)cc(C#N)c4C[C@@H]3N3CCNCC3)c(C)c2)ccc1O[C@H]1c2cc(Cl)cc(C#N)c2C[C@@H]1N1CCNCC1 [Example 42, 3-[2-(2-[2-[(4-[[(1S,2S)-6-Chloro-4-cyano-2-(piperazin-1-yl)-2,3-dihydro-1H-inden-1-yl]oxy]-3-methylbenzene)sulfonamido]ethoxy]ethoxy)ethyl]-1-[4-([[2-(2-[2-[(4-[[(1S,2S)-6-chloro-4-cyano-2-(piperazin-1-yl)-2,3-dihydro-1H-inden-1-yl]oxy]-3-methylbenzene)sulfonamido]ethoxy]ethoxy)ethyl]carbamoyl]amino)butyl]urea; bis(trifluoroacetic acid)] | > 70 | –
8 | C (>70%) | C (NHE3 pIC50 > 7) | N#Cc1cc(Cl)cc2c1C[C@H](N1CCNCC1)[C@H]2Oc1ccc(S(=O)(=O)NC2CCN(C(=O)CCCNC(=O)NCCCCNC(=O)NCCCC(=O)N3CCC(NS(=O)(=O)c4ccc(O[C@H]5c6cc(Cl)cc(C#N)c6C[C@@H]5N5CCNCC5)cc4)CC3)CC2)cc1 [Example 115] | > 70 | –
9 | C (>70%) | C (NHE3 pIC50 > 7) | Cc1cc(S(=O)(=O)NCCOCCOCCNC(=O)NCCCCNC(=O)NCCOCCOCCNS(=O)(=O)c2ccc(O[C@H]3c4cc(Cl)cc(C)c4C[C@@H]3N3CCC[C@@H](N(C)C)C3)c(C)c2)ccc1O[C@H]1c2cc(Cl)cc(C)c2C[C@@H]1N1CCC[C@@H](N(C)C)C1 [Example 29] | > 70 | –
